{"source": "patent US9302999B2", "about": "“Substituted triazoles as herbicides” (E. I. DU PONT DE NEMOURS AND COMPANY, priority 2012, dated 2016)", "format_in_all_cases": "in vivo", "key": {"[1]": {"tested_on": "pigweed (Amaranthus retroflexus)", "experiment": "Test C pre-/postemergence: pigweed", "settings": "Postemergence", "how_it_was_run": "(§1)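 Preemergence on seeds in loam/sand, postemergence on 2–18 cm (1–4-leaf) plants in peat-based medium; compounds in non-phytotoxic solvent with surfactant. After 13–15 days in greenhouse, visual rating versus controls, 0 (no effect) to 100 (complete control).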"}, "[2]": {"tested_on": "foxtail, giant (giant foxtail, Setaria faberii)", "experiment": "Test A pre-/postemergence: foxtail, giant", "settings": "for Foxtail, Giant plant response rating: Postemergence; for Plant response rating, Foxtail, Giant: Preemergence", "how_it_was_run": "(§2)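 Seeds were sown in loam/sand blend and sprayed preemergence (directed soil spray) and, simultaneously, postemergence at 2–10 cm, one- to two-leaf stage, using compounds in non-phytotoxic solvent with surfactant. After ~10 days in greenhouse, injury was rated visually versus untreated controls, 0 (no effect) to 100 (complete control).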"}, "[3]": {"tested_on": "velvetleaf (Abutilon theophrasti)", "experiment": "Test A pre-/postemergence: velvetleaf", "how_it_was_run": "as §2"}, "[4]": {"tested_on": "blackgrass (Alopecurus myosuroides)", "experiment": "Test C pre-/postemergence: blackgrass", "settings": "Postemergence", "how_it_was_run": "as §1"}, "[5]": {"tested_on": "large crabgrass (Digitaria sanguinalis)", "experiment": "Test C pre-/postemergence: large crabgrass", "settings": "Postemergence", "how_it_was_run": "as §1"}, "[6]": {"tested_on": "lambsquarters (Chenopodium album)", "experiment": "Test C pre-/postemergence: lambsquarters", "settings": "Postemergence", "how_it_was_run": "as §1"}, "[7]": {"tested_on": "barnyardgrass (Echinochloa crus-galli)", "experiment": "Test A pre-/postemergence: barnyardgrass", "settings": "for Barnyardgrass plant response rating: Postemergence; for Plant response rating, Barnyardgrass: Preemergence", "how_it_was_run": "as §2"}, "[8]": {"tested_on": "wheat (Triticum aestivum)", "experiment": "Test A pre-/postemergence: wheat", "how_it_was_run": "as §2"}, "[9]": {"tested_on": "ryegrass, Italian (Italian ryegrass, Lolium multiflorum)", "experiment": "Test C pre-/postemergence: ryegrass, Italian", "settings": "Postemergence", "how_it_was_run": "as §1"}, "[10]": {"tested_on": "wild oat (Avena fatua)", "experiment": "Test C pre-/postemergence: wild oat", "settings": "Postemergence", "how_it_was_run": "as §1"}, "[11]": {"tested_on": "kochia (Kochia scoparia)", "experiment": "Test C pre-/postemergence: kochia", "settings": "Postemergence", "how_it_was_run": "as §1"}, "[12]": {"tested_on": "morningglory (Ipomoea spp.)", "experiment": "Test A pre-/postemergence: morningglory", "how_it_was_run": "as §2"}, "[13]": {"settings": "31 g ai/ha, scale 0 to 100 (0 no effect, 100 complete control)"}, "[14]": {"settings": "62 g ai/ha, scale 0 to 100 (0 no effect, 100 complete control)"}, "[15]": {"settings": "125 g ai/ha, scale 0 to 100, 0 no effect, 100 complete control"}, "[16]": {"settings": "125 g ai/ha, 0 to 100 scale, 0 is no effect, 100 is complete control"}, "[17]": {"settings": "500 g ai/ha, visual rating on 0 to 100 scale (0 no effect, 100 complete control), approximately ten days"}, "[18]": {"settings": "125 g ai/ha, 0 to 100 scale where 0 is no effect and 100 is complete control"}, "[19]": {"settings": "500 g ai/ha, 0 to 100 scale (0 no effect, 100 complete control)"}, "[20]": {"settings": "Postemergence, 125 g ai/ha, 0 to 100 scale, 0 is no effect, 100 is complete control"}, "[21]": {"settings": "Postemergence, 500 g ai/ha, visual rating on 0 to 100 scale (0 no effect, 100 complete control), approximately ten days"}, "[22]": {"settings": "Preemergence, 125 g ai/ha, 0 to 100 scale where 0 is no effect and 100 is complete control"}, "[23]": {"settings": "Preemergence, 500 g ai/ha, 0 to 100 scale (0 no effect, 100 complete control)"}}, "data": [{"smiles": "Cc1nn(-c2ccnc(C(F)(F)F)c2)nc1Cc1ccnc(C(F)(F)F)c1", "note": "[Compound 137]", "values": [{"measurement": "Plant response rating, Pigweed", "setting": "[1]; [13]", "value": 98}, {"measurement": "Plant response rating, Pigweed", "setting": "[1]; [14]", "value": 100}, {"measurement": "Plant response rating, Pigweed", "setting": "[1]; [15]", "value": 100}, {"measurement": "Plant response rating, Pigweed", "setting": "[1]; 250 g ai/ha, scale 0 to 100", "value": 100}, {"measurement": "Foxtail, Giant plant response rating", "setting": "[2]; [16]", "value": 90}, {"measurement": "Foxtail, Giant plant response rating", "setting": "[2]; [17]", "value": 90}, {"measurement": "Plant response rating, Foxtail, Giant", "setting": "[2]; [18]", "value": 90}, {"measurement": "Plant response rating, Foxtail, Giant", "setting": "[2]; [19]", "value": 90}, {"measurement": "Plant response rating, Velvetleaf", "setting": "[3]; [20]", "value": 80}, {"measurement": "Velvetleaf plant response rating", "setting": "[3]; [21]", "value": 100}, {"measurement": "Plant response rating, Velvetleaf", "setting": "[3]; [22]", "value": 20}, {"measurement": "Plant response rating, Velvetleaf", "setting": "[3]; [23]", "value": 20}, {"measurement": "Plant response rating, Blackgrass", "setting": "[4]; [13]", "value": 10}, {"measurement": "Plant response rating, Blackgrass", "setting": "[4]; [14]", "value": 30}, {"measurement": "Plant response rating, Blackgrass", "setting": "[4]; [15]", "value": 35}, {"measurement": "Plant response rating, Blackgrass", "setting": "[4]; 250 g ai/ha, scale 0 to 100", "value": 60}, {"measurement": "Plant response rating, Crabgrass, Large", "setting": "[5]; [13]", "value": 15}, {"measurement": "Plant response rating, Crabgrass, Large", "setting": "[5]; [14]", "value": 40}, {"measurement": "Plant response rating, Crabgrass, Large", "setting": "[5]; [15]", "value": 40}, {"measurement": "Plant response rating, Crabgrass, Large", "setting": "[5]; 250 g ai/ha, scale 0 to 100", "value": 65}, {"measurement": "Plant response rating, Lambsquarters", "setting": "[6]; [13]", "value": 100}, {"measurement": "Plant response rating, Lambsquarters", "setting": "[6]; [14]", "value": 100}, {"measurement": "Plant response rating, Lambsquarters", "setting": "[6]; [15]", "value": 100}, {"measurement": "Plant response rating, Lambsquarters", "setting": "[6]; 250 g ai/ha, scale 0 to 100", "value": 100}, {"measurement": "Barnyardgrass plant response rating", "setting": "[7]; [16]", "value": 70}, {"measurement": "Barnyardgrass plant response rating", "setting": "[7]; [17]", "value": 90}, {"measurement": "Plant response rating, Barnyardgrass", "setting": "[7]; [18]", "value": 50}, {"measurement": "Plant response rating, Barnyardgrass", "setting": "[7]; [19]", "value": 70}, {"measurement": "Plant response rating, Wheat", "setting": "[8]; [20]", "value": 20}, {"measurement": "Wheat plant response rating", "setting": "[8]; [21]", "value": 30}, {"measurement": "Plant response rating, Wheat", "setting": "[8]; [22]", "value": 0}, {"measurement": "Plant response rating, Wheat", "setting": "[8]; [23]", "value": 0}, {"measurement": "Plant response rating, Ryegrass, Italian", "setting": "[9]; [13]", "value": 35}, {"measurement": "Plant response rating, Ryegrass, Italian", "setting": "[9]; [14]", "value": 55}, {"measurement": "Plant response rating, Ryegrass, Italian", "setting": "[9]; [15]", "value": 65}, {"measurement": "Plant response rating, Ryegrass, Italian", "setting": "[9]; 250 g ai/ha, scale 0 to 100", "value": 90}, {"measurement": "Plant response rating, Oat, Wild", "setting": "[10]; [13]", "value": 45}, {"measurement": "Plant response rating, Oat, Wild", "setting": "[10]; [14]", "value": 50}, {"measurement": "Plant response rating, Oat, Wild", "setting": "[10]; [15]", "value": 50}, {"measurement": "Plant response rating, Oat, Wild", "setting": "[10]; 250 g ai/ha, scale 0 to 100", "value": 70}, {"measurement": "Plant response rating, Kochia", "setting": "[11]; [13]", "value": 90}, {"measurement": "Plant response rating, Kochia", "setting": "[11]; [14]", "value": 90}, {"measurement": "Plant response rating, Kochia", "setting": "[11]; [15]", "value": 90}, {"measurement": "Plant response rating, Kochia", "setting": "[11]; 250 g ai/ha, scale 0 to 100", "value": 90}, {"measurement": "Plant response rating, Morningglory", "setting": "[12]; [20]", "value": 80}, {"measurement": "Morningglory plant response rating", "setting": "[12]; [21]", "value": 100}, {"measurement": "Plant response rating, Morningglory", "setting": "[12]; [22]", "value": 40}, {"measurement": "Plant response rating, Morningglory", "setting": "[12]; [23]", "value": 60}]}]}
